# Assay results reported in patent US9284350B2, “IAP BIR domain binding compounds” (Pharmascience Inc., priority 2010, dated 2016).
# Columns and labels:
# [1] = molecular target: T1, XIAP (Homo sapiens, UniProt P98170); test: Fluorescence polarization-based competition assay, XIAP; assay type: binding; conditions: FP assay, ki derived from IC50
# T1 construct: fused on or other part: GST tag at the N-terminus (pGEX4T vectors)
# Summary of the method: (§1)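 Competition of FITC-labelled probe (2 nM) binding to the BIR domain, protein set at 80% of maximal FP signal; 10-point compound dilutions in 50 mM HEPES pH 7.5, γ-globulin, 2 mM DTT, 1% DMSO, 1 h at room temperature in the dark. IC50 from sigmoidal fit; Ki derived from IC50.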
# [2] = molecular target: T2, c-IAP1 (Homo sapiens, UniProt Q13490); test: Fluorescence polarization-based competition assay, c-IAP1; assay type: binding; conditions: FP assay, ki derived from IC50
# T2 construct: GST (N); made in house; host or cells: E. coli DH5α
# T2 sequence (Q13490 251-363): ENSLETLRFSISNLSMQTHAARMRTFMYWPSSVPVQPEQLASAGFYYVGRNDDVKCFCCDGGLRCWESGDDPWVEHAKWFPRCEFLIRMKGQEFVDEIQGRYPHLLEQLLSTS
# Summary of the method: as §1
# [3] = molecular target: T3, cIAP2 (Homo sapiens, UniProt Q13489); test: Fluorescence polarization-based competition assay, cIAP2; assay type: binding; conditions: FP assay, ki derived from IC50
# T3 construct: GST (N); made in house; host or cells: E. coli DH5α
# T3 sequence (Q13489 236-349): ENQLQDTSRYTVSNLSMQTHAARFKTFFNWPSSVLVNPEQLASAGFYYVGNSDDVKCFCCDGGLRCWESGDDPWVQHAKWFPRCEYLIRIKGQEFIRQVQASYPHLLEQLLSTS
# Procedure: Binding of compounds of Formula 1 to target BIR domains was measured using a fluorescence-polarization (FP) assay. Fluorescence-polarization was evaluated using a GENios microplate reader (TECAN) Pro instrument with the excitation filter set at 485 nm and the emission filter set at 535 nm. The final amount of protein used in the assay corresponds to the amount of protein necessary to obtain 80% of the maximum FP value in a P1 or P2 fluorescent (FITC) probe saturation experiment. The compounds potency (IC50) and selectivity, was assessed in the presence of the amount of target protein established, fluorescent probe, and a 10 point serial dilution in assay buffer (50 mM Hepes, pH 7.5, 250 mcg/mL γ-globulin, 2 mM DTT, 1% DMSO) of the selected compounds.
# Assays were carried out in duplicate using untreated black 96-well plates (Corning #3915) and a total volume of 100 microliters, containing 25 microliters of fluorescent probe at a final concentration of 2 nM in assay buffer, 25 microliters of diluted compound, 25 microliters of BIR protein into assay buffer and 25 microliters of assay buffer. Buffer only (blank) or probe only in buffer (G-factor) were used as controls for calibration. The plate was incubated at room temperature in the dark for one hour and FP values in millipolarization units (mP) were recorded using Genios Pro FP reader.
# The measured FP values (mP) were then plotted against compound concentration, and IC50 values were calculated based on a sigmoidal dose-response (variable-slope) curve fit using GraphPad Prism version 4.02 for Windows, GraphPad Software, San Diego Calif. USA and/or CambridgeSoft BioAssay Enterprise Version 10.1. The IC50 value is the concentration of test compound at which 50% of the tracer was displaced. ki values were derived from the calculated IC50 values as described above and according to the equation described in Nikolovska-Coleska, Z. (2004) Anal Biochem 332, 261-273. The results are presented in Table 2, wherein A=less than 25 nM; B=less than 250 nM; C=less than 1000 nM; and D=greater than 1000 nM.
# [4] = test system: Colorectal carcinoma HCT116 cells; test: Cell death assay (MTT) in combination with HGS ETR1; assay type: cell-based; conditions: with HGS ETR1 30 ng/ml, 72 hours, read-out: HCT116+ mapatubimap EC50
# Summary of the method: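 HCT116 cells (2000/well, McCoy's 5a, 10% FBS) were treated 24 h after plating with compound plus the agonistic TRAIL receptor antibody mapatumumab (ETR1, 30 ng/ml) for 72 hours. Viability was read by MTT. EC50 was the concentration giving 50% survival relative to untreated controls.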
# T1 sequence (P98170 246-497 limits assumed): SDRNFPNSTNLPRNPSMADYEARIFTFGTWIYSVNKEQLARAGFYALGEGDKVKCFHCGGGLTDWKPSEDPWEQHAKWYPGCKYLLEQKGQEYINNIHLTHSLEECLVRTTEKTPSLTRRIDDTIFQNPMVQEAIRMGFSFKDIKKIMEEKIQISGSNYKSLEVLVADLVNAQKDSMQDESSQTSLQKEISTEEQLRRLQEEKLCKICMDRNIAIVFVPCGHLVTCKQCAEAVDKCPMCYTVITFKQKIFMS
Compound,Ki [1],Ki [2],Ki [3],EC50 [4]
CN[C@@H](C)C(=O)N[C@H](C(=O)N1CCC[C@H]1CN(CCc1ccc(F)cc1)C(=O)c1ncc(-c2ccccc2)o1)C(C)(C)C [Compound 123],< 250 nM,< 25 nM,< 25 nM,< 50 nM
CN[C@@H](C)C(=O)N[C@H](C(=O)N1CCC[C@H]1CN(CCc1ccc(F)cc1)C(=O)c1cn(C2CCCCC2)cn1)C(C)(C)C [Compound 93],< 250 nM,< 25 nM,< 25 nM,< 50 nM
CN[C@@H](C)C(=O)N[C@H](C(=O)N1C[C@@H](NC(=O)c2ccccc2)C[C@H]1CN(CCc1ccc(F)cc1)C(=O)c1cn(C)cn1)C(C)(C)C [Compound 86],< 250 nM,< 25 nM,< 25 nM,< 50 nM
CN[C@@H](C)C(=O)N[C@H](C(=O)N1CCC[C@H]1CN(CCc1ccc(F)cc1)C(=O)c1cn(-c2ccc(F)cc2)cn1)[C@@H](C)OC [Compound 72],< 250 nM,< 25 nM,< 25 nM,< 50 nM
CCO[C@H](C)[C@H](NC(=O)[C@H](C)NC)C(=O)N1CCC[C@H]1CN(CCc1ccc(F)cc1)C(=O)c1cn(C)cn1 [Compound 76],< 250 nM,< 25 nM,< 25 nM,< 50 nM
CN[C@@H](C)C(=O)N[C@H](C(=O)N1C[C@@H](Oc2ccc(OC)cc2)C[C@H]1CN(CCc1ccc(F)cc1)C(=O)c1cn2ccccc2n1)C(C)(C)C [Compound 105],< 25 nM,< 25 nM,< 25 nM,< 50 nM
CN[C@@H](C)C(=O)N[C@H](C(=O)N1C[C@@H](OCc2ccccc2)C[C@H]1CN(CCc1ccc(F)cc1)C(=O)c1cn2cccnc2n1)C(C)(C)C [Compound 47],< 250 nM,< 25 nM,< 25 nM,< 250 nM
CN[C@@H](C)C(=O)N[C@H](C(=O)N1CCC[C@H]1CN(CCc1ccc(F)cc1)C(=O)c1cn2cc(F)cnc2n1)[C@@H](C)OC [Compound 74],< 250 nM,< 25 nM,< 25 nM,< 50 nM
CN[C@@H](C)C(=O)N[C@H](C(=O)N1C[C@@H](Oc2ccc(F)cc2)C[C@H]1CN(CCc1ccc(F)cc1)C(=O)c1cn2cccnc2n1)[C@@H](C)OC [Compound 100],< 250 nM,< 25 nM,< 25 nM,< 250 nM
CN[C@@H](C)C(=O)N[C@H](C(=O)N1C[C@@H](Oc2ccc(OC(F)(F)F)cc2)C[C@H]1CN(CCc1ccc(F)cc1)C(=O)c1cn(C)cn1)C(C)(C)C [Compound 97],< 250 nM,< 25 nM,< 25 nM,< 50 nM
CN[C@@H](C)C(=O)N[C@H](C(=O)N1C[C@@H](Oc2ccc(F)cc2)C[C@H]1CN(CCc1ccc(F)cc1)C(=O)c1cn(C)cn1)[C@@H](C)OC [Compound 99],< 250 nM,< 25 nM,< 25 nM,< 50 nM
CN[C@@H](C)C(=O)N[C@H](C(=O)N1CCC[C@H]1CN(CCc1ccc(F)cc1)C(=O)c1cn(C)cn1)C1CCCCC1 [Compound 120],< 250 nM,< 25 nM,< 25 nM,< 50 nM
CCN[C@@H](C)C(=O)N[C@H](C(=O)N1CCC[C@H]1CN(CCc1ccccc1)C(=O)c1cn2cccnc2n1)C(C)(C)C [Compound 14],< 1000 nM,< 25 nM,< 250 nM,< 250 nM
CN[C@@H](C)C(=O)N[C@H](C(=O)N1CCC[C@H]1CN(CCc1ccc(F)cc1)C(=O)c1cn2c(n1)CCC2)C1CCCCC1 [Compound 113],< 250 nM,< 25 nM,< 25 nM,< 50 nM
CN[C@@H](C)C(=O)N[C@H](C(=O)N1C[C@@H](NC(=O)c2ccccc2)C[C@H]1CN(CCc1ccc(F)cc1)C(=O)c1cn2cc(F)cnc2n1)C(C)(C)C [Compound 112],< 250 nM,< 25 nM,< 25 nM,< 250 nM
